# Data: US20250120967A1, “TYROSINE KINASES INHIBITORS AND USES THEREOF” (GREAT NOVEL THERAPEUTICS BIOTECH & MEDICALS CORPORATION, priority 2023, published 2025)
# Where two headings read alike, the source gives them in different places.
# Legend:
# Assay in all cases: Tyrosine kinase inhibition assay
# Type in all cases: biochemical
# BTK = BTK (Homo sapiens, UniProt Q06187); settings: for IC50: read-out: IC50 of compound; for inhibition at 1 µM: single concentration 1.0 μM, read-out: percent inhibition
# Method: (§1) Tyrosine kinase inhibition assays were performed at ThermoFisher Life Technologies (Madison, WI, USA) using standard protocols (SelectScreen Biochemical Profiling Service, Thermo Fisher Scientific). ATP concentrations used were at the apparent Km. Test compounds were screened in 1% dimethylsulffoxide (DMSO) (final concentration) in the well. For 10-point titrations, 3-fold serial dilutions were conducted from the starting concentration of […]. All Peptide/Kinase Mixtures were diluted to a 2× working concentration in the appropriate Kinase Buffer. All ATP Solutions were diluted to a 4× working concentration in Kinase Buffer (50 mM HEPES pH 7.5, 0.01% BRIJ-35, 10 mM MgCl2, 1 mM EGTA). The apparent ATP Km was previously determined using a Z′-LYTE assay. The Development Reagent was diluted in Development Buffer.
# (§2) The inhibition activities of compounds were determined in biochemical assays using single concentration (1.0 μM) measurements. The results were provided as percent inhibition values. A compound displaying a percent inhibition value of greater 80% was defined as a hit. 99 different tyrosine kinases were used.
# EPHA2 = EPHA2 (Homo sapiens, UniProt P29317); settings: for IC50: read-out: IC50 of compound; for inhibition at 1 µM: single concentration 1.0 μM, read-out: percent inhibition
# Method: as §1, §2
# FER = FER (Homo sapiens, UniProt P16591); settings: for IC50: read-out: IC50 of compound; for inhibition at 1 µM: single concentration 1.0 μM, read-out: percent inhibition
# Method: as §1, §2
# FGR = FGR (Homo sapiens, UniProt P09769); settings: for IC50: read-out: IC50 of compound; for inhibition at 1 µM: single concentration 1.0 μM, read-out: percent inhibition
# Method: as §1, §2
# FLT4 (VEGFR3) = FLT4 (VEGFR3) (Homo sapiens, UniProt P35916); settings: for IC50: read-out: IC50 of compound; for inhibition at 1 µM: single concentration 1.0 μM, read-out: percent inhibition
# Method: as §1, §2
# HCK = HCK (Homo sapiens, UniProt P08631); settings: for IC50: read-out: IC50 of compound; for inhibition at 1 µM: single concentration 1.0 μM, read-out: percent inhibition
# Method: as §1, §2
# INSRR (IRR) = INSRR (IRR) (Homo sapiens, UniProt P14616); settings: for IC50: read-out: IC50 of compound; for inhibition at 1 µM: single concentration 1.0 μM, read-out: percent inhibition
# Method: as §1, §2
# LCK = LCK (Homo sapiens, UniProt P06239); settings: for IC50: read-out: IC50 of compound; for inhibition at 1 µM: single concentration 1.0 μM, read-out: percent inhibition
# Sequence of LCK (P06239 whole entry): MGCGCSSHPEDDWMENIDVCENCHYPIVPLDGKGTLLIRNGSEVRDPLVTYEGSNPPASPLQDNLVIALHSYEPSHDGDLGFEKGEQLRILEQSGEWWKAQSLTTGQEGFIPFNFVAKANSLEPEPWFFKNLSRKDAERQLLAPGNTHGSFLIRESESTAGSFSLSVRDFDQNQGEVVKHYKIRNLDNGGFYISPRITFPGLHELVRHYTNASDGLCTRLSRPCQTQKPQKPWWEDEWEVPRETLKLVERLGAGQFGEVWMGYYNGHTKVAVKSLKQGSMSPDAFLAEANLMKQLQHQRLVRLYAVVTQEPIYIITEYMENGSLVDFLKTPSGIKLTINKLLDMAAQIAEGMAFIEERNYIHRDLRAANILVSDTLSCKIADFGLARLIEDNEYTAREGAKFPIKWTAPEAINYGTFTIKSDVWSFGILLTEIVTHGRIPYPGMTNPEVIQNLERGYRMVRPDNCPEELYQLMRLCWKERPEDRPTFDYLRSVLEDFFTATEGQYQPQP
# Method: as §1, §2
# LYN A = LYN A (Homo sapiens, UniProt P07948); settings: for IC50: read-out: IC50 of compound; for inhibition at 1 µM: single concentration 1.0 μM, read-out: percent inhibition
# Method: as §1, §2
# LYN B = LYN B (Homo sapiens, UniProt P07948); settings: for inhibition at 1 µM: single concentration 1.0 μM, read-out: percent inhibition
# Method: as §1, §2
# NTRK2 (TRKB) = NTRK2 (TRKB) (Homo sapiens, UniProt Q16620); settings: for inhibition at 1 µM: single concentration 1.0 μM, read-out: percent inhibition
# Method: as §1, §2
# PDGFRA (PDGFR alpha) = PDGFRA (PDGFR alpha) (Homo sapiens, UniProt P16234); settings: for IC50: read-out: IC50 of compound; for inhibition at 1 µM: single concentration 1.0 μM, read-out: percent inhibition
# Sequence of PDGFRA (PDGFR alpha) (P16234 24-1089): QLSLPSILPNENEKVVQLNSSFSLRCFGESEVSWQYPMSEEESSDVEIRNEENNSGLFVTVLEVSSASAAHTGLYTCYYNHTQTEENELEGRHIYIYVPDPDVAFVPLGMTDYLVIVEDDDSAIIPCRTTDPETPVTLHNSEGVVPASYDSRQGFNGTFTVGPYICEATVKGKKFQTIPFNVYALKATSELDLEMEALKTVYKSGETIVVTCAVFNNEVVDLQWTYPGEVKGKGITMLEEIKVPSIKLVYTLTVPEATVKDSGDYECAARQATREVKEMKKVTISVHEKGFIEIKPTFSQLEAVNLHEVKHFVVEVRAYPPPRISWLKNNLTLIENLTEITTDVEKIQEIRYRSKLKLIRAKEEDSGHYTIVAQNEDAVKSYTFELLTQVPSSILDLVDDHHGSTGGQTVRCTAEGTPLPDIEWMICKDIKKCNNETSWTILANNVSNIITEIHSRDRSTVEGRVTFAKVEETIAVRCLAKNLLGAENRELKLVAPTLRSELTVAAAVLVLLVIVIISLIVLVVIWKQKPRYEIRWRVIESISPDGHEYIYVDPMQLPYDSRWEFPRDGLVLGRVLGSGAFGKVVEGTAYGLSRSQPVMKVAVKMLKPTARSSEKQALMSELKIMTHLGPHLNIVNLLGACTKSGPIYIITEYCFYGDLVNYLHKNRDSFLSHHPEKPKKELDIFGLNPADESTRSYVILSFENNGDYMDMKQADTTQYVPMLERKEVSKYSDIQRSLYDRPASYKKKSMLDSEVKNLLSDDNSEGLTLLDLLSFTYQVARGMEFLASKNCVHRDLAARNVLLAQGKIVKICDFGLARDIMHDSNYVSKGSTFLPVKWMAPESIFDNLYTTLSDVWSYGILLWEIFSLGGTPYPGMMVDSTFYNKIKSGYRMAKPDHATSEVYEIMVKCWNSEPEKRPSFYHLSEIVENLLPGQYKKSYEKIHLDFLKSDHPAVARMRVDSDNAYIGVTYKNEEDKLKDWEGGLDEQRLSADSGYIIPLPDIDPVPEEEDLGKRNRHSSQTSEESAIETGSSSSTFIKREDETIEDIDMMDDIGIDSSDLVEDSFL
# Method: as §1, §2
# ROS1 = ROS1 (Homo sapiens, UniProt P08922); settings: for IC50: read-out: IC50 of compound; for inhibition at 1 µM: single concentration 1.0 μM, read-out: percent inhibition
# Method: as §1, §2
# SRC = SRC (Homo sapiens, UniProt P12931); settings: for IC50: read-out: IC50 of compound; for inhibition at 1 µM: single concentration 1.0 μM, read-out: percent inhibition
# Method: as §1, §2
# CSF1R (FMS) = CSF1R (FMS) (Homo sapiens, UniProt P07333); settings: for IC50: read-out: IC50 of compound; for inhibition at 1 µM: single concentration 1.0 μM, read-out: percent inhibition
# Sequence of CSF1R (FMS) (P07333 20-972): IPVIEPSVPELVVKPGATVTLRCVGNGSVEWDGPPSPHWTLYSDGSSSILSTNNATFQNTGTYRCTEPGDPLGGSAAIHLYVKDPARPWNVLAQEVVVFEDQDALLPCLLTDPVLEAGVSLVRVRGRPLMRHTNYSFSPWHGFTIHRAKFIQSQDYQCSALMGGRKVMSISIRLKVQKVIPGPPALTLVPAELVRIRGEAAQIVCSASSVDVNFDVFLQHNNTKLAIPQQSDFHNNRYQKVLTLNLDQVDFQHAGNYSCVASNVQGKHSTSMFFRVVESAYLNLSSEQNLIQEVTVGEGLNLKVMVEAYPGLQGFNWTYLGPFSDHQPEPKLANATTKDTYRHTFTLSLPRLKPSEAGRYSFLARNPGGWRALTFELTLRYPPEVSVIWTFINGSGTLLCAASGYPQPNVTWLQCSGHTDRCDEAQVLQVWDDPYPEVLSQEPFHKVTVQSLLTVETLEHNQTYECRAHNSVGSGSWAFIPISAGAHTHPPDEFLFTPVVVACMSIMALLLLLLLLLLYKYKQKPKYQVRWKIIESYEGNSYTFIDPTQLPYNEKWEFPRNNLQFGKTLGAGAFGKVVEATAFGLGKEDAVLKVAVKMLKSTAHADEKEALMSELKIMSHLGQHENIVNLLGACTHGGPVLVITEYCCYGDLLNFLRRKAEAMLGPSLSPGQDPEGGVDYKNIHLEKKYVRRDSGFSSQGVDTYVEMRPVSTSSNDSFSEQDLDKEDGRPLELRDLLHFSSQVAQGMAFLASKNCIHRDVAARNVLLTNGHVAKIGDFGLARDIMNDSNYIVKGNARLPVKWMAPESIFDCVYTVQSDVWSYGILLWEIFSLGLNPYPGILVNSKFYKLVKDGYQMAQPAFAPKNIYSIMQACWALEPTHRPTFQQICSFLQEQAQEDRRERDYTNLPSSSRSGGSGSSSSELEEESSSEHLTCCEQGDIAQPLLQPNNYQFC
# Method: as §1
# (§3) The inhibition activities of compounds were determined in biochemical assays using single concentration (1.0 μM) measurements. The results were provided as percent inhibition values. […] 99 different tyrosine kinases were used.
# FLT3 = target: T1, FLT3 (Homo sapiens, UniProt P36888); settings: for inhibition at 1 µM: single concentration 1.0 μM, read-out: percent inhibition; for IC50: read-out: IC50 of compound
# T1 sequence (P36888 27-993): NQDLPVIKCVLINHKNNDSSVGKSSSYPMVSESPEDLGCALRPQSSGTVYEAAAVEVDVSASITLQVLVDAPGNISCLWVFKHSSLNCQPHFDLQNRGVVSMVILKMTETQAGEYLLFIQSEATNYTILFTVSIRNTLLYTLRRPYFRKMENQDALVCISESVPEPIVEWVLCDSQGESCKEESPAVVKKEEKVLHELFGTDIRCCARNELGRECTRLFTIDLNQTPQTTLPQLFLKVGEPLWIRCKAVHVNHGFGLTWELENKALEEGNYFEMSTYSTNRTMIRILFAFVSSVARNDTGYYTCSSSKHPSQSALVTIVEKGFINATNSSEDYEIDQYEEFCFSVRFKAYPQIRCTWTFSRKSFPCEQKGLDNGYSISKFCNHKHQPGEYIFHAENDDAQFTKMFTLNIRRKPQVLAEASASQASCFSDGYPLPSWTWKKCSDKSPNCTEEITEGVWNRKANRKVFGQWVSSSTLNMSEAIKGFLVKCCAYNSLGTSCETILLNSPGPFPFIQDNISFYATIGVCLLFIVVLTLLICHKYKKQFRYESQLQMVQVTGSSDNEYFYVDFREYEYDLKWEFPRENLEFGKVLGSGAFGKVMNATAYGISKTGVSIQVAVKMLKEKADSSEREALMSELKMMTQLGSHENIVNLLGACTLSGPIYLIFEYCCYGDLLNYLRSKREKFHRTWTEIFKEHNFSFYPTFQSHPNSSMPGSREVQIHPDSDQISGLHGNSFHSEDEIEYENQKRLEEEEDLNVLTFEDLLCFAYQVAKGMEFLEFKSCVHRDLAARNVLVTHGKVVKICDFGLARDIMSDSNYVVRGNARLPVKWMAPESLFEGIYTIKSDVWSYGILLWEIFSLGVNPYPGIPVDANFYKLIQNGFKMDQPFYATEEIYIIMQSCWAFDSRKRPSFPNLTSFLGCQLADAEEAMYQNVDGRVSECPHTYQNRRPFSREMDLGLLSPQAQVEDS
# Method: as §1, §3
# MST1R (RON) = MST1R (RON) (Homo sapiens, UniProt Q04912); settings: for inhibition at 1 µM: single concentration 1.0 μM, read-out: percent inhibition; for IC50: read-out: IC50 of compound
# Sequence of MST1R (RON) (Q04912 25-1400): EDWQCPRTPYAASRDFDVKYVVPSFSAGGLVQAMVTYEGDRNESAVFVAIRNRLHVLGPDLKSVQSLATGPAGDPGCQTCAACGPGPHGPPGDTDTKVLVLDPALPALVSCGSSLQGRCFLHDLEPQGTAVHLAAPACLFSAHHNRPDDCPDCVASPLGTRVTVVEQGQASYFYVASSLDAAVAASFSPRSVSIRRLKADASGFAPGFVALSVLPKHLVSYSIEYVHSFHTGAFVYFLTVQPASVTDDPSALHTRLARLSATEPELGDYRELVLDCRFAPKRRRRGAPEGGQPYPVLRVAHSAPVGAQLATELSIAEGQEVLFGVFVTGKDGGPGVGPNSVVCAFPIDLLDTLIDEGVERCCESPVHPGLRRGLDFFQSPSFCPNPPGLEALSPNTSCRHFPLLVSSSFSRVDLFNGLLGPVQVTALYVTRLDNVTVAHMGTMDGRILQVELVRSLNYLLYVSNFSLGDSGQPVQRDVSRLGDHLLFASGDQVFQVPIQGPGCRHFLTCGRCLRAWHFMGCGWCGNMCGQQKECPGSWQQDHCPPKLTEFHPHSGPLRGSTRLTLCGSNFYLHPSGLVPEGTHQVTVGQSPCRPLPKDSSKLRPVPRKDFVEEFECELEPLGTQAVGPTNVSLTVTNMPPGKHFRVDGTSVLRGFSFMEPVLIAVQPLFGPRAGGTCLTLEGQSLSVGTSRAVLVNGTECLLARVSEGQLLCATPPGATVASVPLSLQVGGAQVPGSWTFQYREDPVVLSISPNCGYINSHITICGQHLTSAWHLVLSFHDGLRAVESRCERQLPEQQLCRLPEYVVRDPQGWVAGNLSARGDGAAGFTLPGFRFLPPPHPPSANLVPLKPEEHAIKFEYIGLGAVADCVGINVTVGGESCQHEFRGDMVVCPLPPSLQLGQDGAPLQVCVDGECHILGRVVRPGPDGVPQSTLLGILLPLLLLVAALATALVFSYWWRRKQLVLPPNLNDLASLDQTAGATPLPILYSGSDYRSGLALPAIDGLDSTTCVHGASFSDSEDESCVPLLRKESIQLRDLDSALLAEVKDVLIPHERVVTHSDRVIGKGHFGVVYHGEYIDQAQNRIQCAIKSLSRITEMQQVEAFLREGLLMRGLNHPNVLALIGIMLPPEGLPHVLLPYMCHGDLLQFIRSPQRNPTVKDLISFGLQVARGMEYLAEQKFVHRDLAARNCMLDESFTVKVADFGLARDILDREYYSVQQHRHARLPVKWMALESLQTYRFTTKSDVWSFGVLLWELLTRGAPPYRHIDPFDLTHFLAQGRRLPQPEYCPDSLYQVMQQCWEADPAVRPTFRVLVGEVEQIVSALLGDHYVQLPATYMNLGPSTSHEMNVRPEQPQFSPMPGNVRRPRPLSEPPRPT
# Method: as §1, §3
# TEK (Tie2) = TEK (Tie2) (Homo sapiens, UniProt Q02763); settings: for inhibition at 1 µM: single concentration 1.0 μM, read-out: percent inhibition; for IC50: read-out: IC50 of compound
# Sequence of TEK (Tie2) (Q02763 23-1124): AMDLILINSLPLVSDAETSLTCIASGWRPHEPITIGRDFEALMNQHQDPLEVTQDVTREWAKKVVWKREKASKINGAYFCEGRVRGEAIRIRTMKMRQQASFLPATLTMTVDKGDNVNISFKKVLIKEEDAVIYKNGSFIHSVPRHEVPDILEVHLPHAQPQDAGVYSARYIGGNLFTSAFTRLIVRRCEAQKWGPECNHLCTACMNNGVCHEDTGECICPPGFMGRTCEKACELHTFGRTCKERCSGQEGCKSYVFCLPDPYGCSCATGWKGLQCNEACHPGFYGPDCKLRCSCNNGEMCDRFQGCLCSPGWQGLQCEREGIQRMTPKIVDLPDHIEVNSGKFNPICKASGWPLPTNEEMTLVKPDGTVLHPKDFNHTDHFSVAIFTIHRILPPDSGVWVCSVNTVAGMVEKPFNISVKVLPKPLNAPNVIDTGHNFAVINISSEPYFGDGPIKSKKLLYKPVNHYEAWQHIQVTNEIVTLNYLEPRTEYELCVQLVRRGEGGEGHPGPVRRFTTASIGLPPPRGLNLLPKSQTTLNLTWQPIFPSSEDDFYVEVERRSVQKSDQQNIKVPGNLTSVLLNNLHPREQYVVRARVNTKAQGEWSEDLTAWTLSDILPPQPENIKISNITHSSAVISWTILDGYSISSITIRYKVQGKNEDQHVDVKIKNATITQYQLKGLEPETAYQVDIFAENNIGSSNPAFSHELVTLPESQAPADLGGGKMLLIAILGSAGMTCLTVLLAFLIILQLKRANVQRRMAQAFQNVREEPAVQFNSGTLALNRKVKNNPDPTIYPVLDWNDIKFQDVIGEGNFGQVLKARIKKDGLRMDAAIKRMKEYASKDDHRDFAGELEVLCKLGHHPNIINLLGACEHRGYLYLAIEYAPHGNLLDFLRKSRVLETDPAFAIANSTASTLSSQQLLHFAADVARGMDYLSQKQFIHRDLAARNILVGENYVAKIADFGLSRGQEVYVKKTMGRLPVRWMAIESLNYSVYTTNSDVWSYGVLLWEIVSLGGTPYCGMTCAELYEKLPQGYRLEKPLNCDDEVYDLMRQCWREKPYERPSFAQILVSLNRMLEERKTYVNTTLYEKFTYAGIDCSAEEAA
# Method: as §1, §3
# [1] = LYN B, read-out: IC50 of compound
# [2] = NTRK2 (TRKB), read-out: IC50 of compound
Structure (SMILES),IC50 (BTK),inhibition at 1 µM (BTK),IC50 (EPHA2),inhibition at 1 µM (EPHA2),inhibition at 1 µM (FER),inhibition at 1 µM (FGR),inhibition at 1 µM (FLT4 (VEGFR3)),inhibition at 1 µM (HCK),inhibition at 1 µM (INSRR (IRR)),inhibition at 1 µM (LCK),inhibition at 1 µM (LYN A),inhibition at 1 µM (LYN B; LYN B),inhibition at 1 µM (NTRK2 (TRKB); NTRK2 (TRKB)),inhibition at 1 µM (PDGFRA (PDGFR alpha)),inhibition at 1 µM (ROS1),inhibition at 1 µM (SRC),inhibition at 1 µM (CSF1R (FMS)),inhibition at 1 µM (FLT3),inhibition at 1 µM (MST1R (RON)),inhibition at 1 µM (TEK (Tie2)),also measured
"COc1cc2nccc(Oc3ccc(NC(=O)C4(C(=O)Nc5ccc(F)cc5)CC4)cc3)c2cc1OC [Cabozantinib, reference compound]",172 nM,82%,37.7 nM,95%,89%,97%,95%,90%,38%,95%,92%,91%,95%,92%,87%,89%,88%,90%,95%,89%,IC50 (FER): 424 nM; IC50 (FGR): 88.8 nM; IC50 (FLT4 (VEGFR3)): 30.3 nM; IC50 (HCK): 111 nM; IC50 (INSRR (IRR)): 386 nM; IC50 (LCK): 38.1 nM; IC50 (LYN A): 217 nM; IC50 (LYN B): 67.7 nM; IC50 (NTRK2 (TRKB)): 53.3 nM; IC50 (PDGFRA (PDGFR alpha)): 84.1 nM; IC50 (ROS1): 60.6 nM; IC50 (SRC): 141 nM; IC50 (CSF1R (FMS)): 11.9 nM
"COc1cc2nccc(Oc3ccc(NC(=O)C4(NC(=O)c5ccc(F)cc5)CC4)cc3F)c2cc1OC [Cbo-02, N-(1-((4-((6,7-diMethoxyquinolin-4-yl)oxy)-3-fluorophenyl)carbamoyl)cyclopropyl)-4-fluorobenzamide]",,98%,,33%,88%,74%,79%,62%,80%,85%,71%,81%,23%,48%,56%,42%,83%,56%,96%,77%,
COc1cc2nccc(Oc3ccc(NC(=O)C4(NC(=O)c5ccc(F)cc5)CC4)cc3F)c2cc1Oc1ccc(N)cc1F [Cbo-10],,102%,,56%,97%,92%,92%,72%,93%,96%,81%,86%,73%,84%,95%,86%,96%,70%,100%,85%,
COc1cc2nccc(Oc3ccc(NC(=O)C4(NC(=O)c5ccc(F)cc5)CC4)cc3F)c2cc1Oc1c(F)cc(N)cc1F [Cbo-14],,101%,,61%,99%,92%,92%,74%,93%,97%,86%,87%,88%,94%,97%,86%,93%,81%,100%,90%,
COc1cc2nccc(Oc3ccc(NC(=O)C4(C(=O)Nc5ccc(F)cc5)CC4)cc3F)c2cc1Oc1ccc(N)cc1F [Cbo-23],9.01 nM,101%,20.9 nM,102%,101%,97%,99%,99%,97%,99%,92%,96%,112%,95%,100%,94%,99%,99%,101%,95%,IC50 (FER): 24.7 nM; IC50 (FGR): 25.3 nM; IC50 (FLT4 (VEGFR3)): 20.8 nM; IC50 (HCK): 21.4 nM; IC50 (INSRR (IRR)): 53.4 nM; IC50 (LCK): 15.9 nM; IC50 (LYN A): 53.1 nM; IC50 (LYN B; [1]): 18.8 nM; IC50 (NTRK2 (TRKB); [2]): 14.8 nM; IC50 (PDGFRA (PDGFR alpha)): 36.9 nM; IC50 (ROS1): 5.87 nM; IC50 (SRC): 32.1 nM; IC50 (CSF1R (FMS)): 40.2 nM; IC50 (FLT3): 24.8 nM; IC50 (MST1R (RON)): 51.5 nM; IC50 (TEK (Tie2)): 63.1 nM
"CNC(=O)c1cc2c(Oc3ccc(NC(=O)C4(C(=O)Nc5ccc(F)cc5)CC4)cc3)ccnc2cc1OC [Zanzalintinib, reference compound]",111 nM,,52.2 nM,,,,,,,,,,,,,,,,,,IC50 (FER): 266 nM; IC50 (FGR): 35.4 nM; IC50 (FLT4 (VEGFR3)): 21.7 nM; IC50 (HCK): 59 nM; IC50 (INSRR (IRR)): 302 nM; IC50 (LCK): 7.07 nM; IC50 (LYN A): 70.9 nM; IC50 (LYN B; [1]): 30.7 nM; IC50 (NTRK2 (TRKB); [2]): 112 nM; IC50 (PDGFRA (PDGFR alpha)): 93.9 nM; IC50 (ROS1): 71.4 nM; IC50 (SRC): 45.1 nM; IC50 (CSF1R (FMS)): 16.3 nM; IC50 (FLT3): 5.43 nM; IC50 (MST1R (RON)): 135 nM; IC50 (TEK (Tie2)): 150 nM
